Measurements: US20250154212A1, “METHOD OF DISRUPTING MEMORY AND LIPOPEPTIDE FOR USE IN SUCH METHOD” (The Research Foundation for The State University of New York, priority 2023, published 2025)
Entries after “also recorded” stand apart in the source; their conditions may differ. Where no end group is shown, it is not given here. The star is where a group is joined. Myristoyl = CCCCCCCCCCCCCC(=O)*

Legend:
spatial long-term memory = experiment: Active place avoidance, intrahippocampal injection, wild-type mice; assay type: in vivo, mouse; conditions: for spatial memory retention (time to first enter shock zone), 3-day memory: 5 nmol in 0.5 μl per hippocampus 1 day after conditioning; for learning and retention of a new memory (place avoidance in Context B): conditioned 2 days after injection, retention 3 days later
Procedure: (§1) For spatial long-term memory experiments, we adapted the approach used in Garcia-Osta et al. (82). Mice were ˜12-weeks old at surgery. Briefly, to implant the injection cannula hardware, mice were anesthetized by an intraperitoneal (i.p.) injection of a mixture of dexmedetomidine ([…] body weight) and ketamine (28 mg/kg body weight), and mounted in a Kopf stereotaxic frame (Tujunga, CA). The tips of guide cannula (Plastics One, Roanoke, VA; Part Numbers: C235GS-5-2.0) were targeted above the injection target in the dorsal hippocampus (AP-1.94 mm; ML±1.00 mm; DV-0.90 mm). The other injection hardware (Part Numbers: C235DCs-5, 303DC/1; cannula dummy, cannula cap, respectively) was assembled, and antisedan (0.65 mg/kg body weight i.p.) was administered to reverse the sedation at the end of surgery.
Three to four weeks after surgery, the animals received active place avoidance training. Before testing the effect of the drug injection on place avoidance, the animals received a bilateral injection of vehicle (PBS [pH 7.4] 0.5 μl/side) and were left in the home cage to habituate to the procedure. Depending on the experimental design, injection of vehicle or drug, either ζ-stat or K-ZAP (5 nmol in 0.5 μl PBS/side), is 1 day or 4 weeks after the training session. During the injection, the animals were restrained, the cannula cap and dummy removed, and the injection needle (Plastics One, Roanoke, VA; Part Numbers: C235IS-5) inserted into the guide cannula so that it protruded from the end of the guide by 0.5 mm. The other end of the needle was connected to a 10 μl Hamilton syringe via Tygon tubing. The drug or vehicle was infused for 1 min, and after the infusion the needle was left in place for 5 min before removal. The animals were then returned to their home cages until the memory retention tests that were conducted 2 days later.
Active place avoidance was conducted with a commercial computer-controlled system (Bio-Signal Group, Acton, MA). The mouse was placed on a 40-cm diameter circular arena rotating at 1 rpm. The specialized software, Tracker (Bio-Signal Group, Acton, MA), was used to detect the animal's position 30 times per second by video tracking from an overhead camera. A clear wall made from polyethylene terephthalate glycol-modified (PET-G) was placed on the arena to prevent the animal from jumping off the elevated arena surface. A 5-pole shock grid was placed on the rotating arena, and the shock was scrambled across the 5-poles when the mouse entered the shock zone. All experiments used the “Room+Arena−” task variant that challenges the mouse on the rotating arena to avoid a shock zone that was a stationary 60° sector (7). Every 33 ms, the software determined the mouse's position, whether it was in the shock zone, and whether to deliver shock. After the animal enters the shock zone for 500 ms, a constant current foot-shock (60 Hz, 500 ms) was delivered and repeated with the interval of 1500 ms until the mouse left the shock zone. The shock intensity was 0.2 or 0.3 mA, which was the minimum amplitude to elicit flinch or escape responses. The animal was forced to actively avoid the designated shock zone because the arena rotation periodically transported it into the shock area.
The tracked animal positions with timestamps were analyzed offline (TrackAnalysis, Bio-Signal Group, Acton, MA) to extract several end-point measures. The time to first enter the shock zone estimates ability to avoid shock and was taken as an index of between-session memory. The number of entrances within one trial was taken as another index to examine the animal learning curve throughout all training trials. A pretraining habituation period on the apparatus equivalent in time to a training session, but without shock, was provided.
The training schedule was as follows: 2 h after a 30-min pretraining habituation, the animals received three 30-min training trials, with an intertrial interval of 2 h. […]

[1] = tested on: spatial long-term memory in PKMζ-null mice; experiment: Active place avoidance, intrahippocampal injection, PKMζ-null mice; assay type: in vivo, mouse; conditions: 5 nmol in 0.5 μl per hippocampus 1 day after conditioning, tested 2 days post-injection
Procedure: as §1
Three to four weeks after surgery, the animals received active place avoidance training. […]
Active place avoidance was conducted with a commercial computer-controlled system (Bio-Signal Group, Acton, MA). […] Every 33 ms, the software determined the mouse's position, whether it was in the shock zone, and whether to deliver shock. […]
The tracked animal positions with timestamps were analyzed offline (TrackAnalysis, Bio-Signal Group, Acton, MA) to extract several end-point measures. […]

O=S(=O)(O)c1cc(O)c2c(S(=O)(=O)O)cc(S(=O)(=O)O)cc2c1 [ζ-stat, 1-naphthol-3,6,8-trisulphonic acid]
spatial memory retention (time to first enter shock zone), 3-day memory (spatial long-term memory; tested 2 days post-injection): persistent loss of retention | spatial memory retention (time to first enter shock zone), 3-day memory (spatial long-term memory; tested 2 days post-injection, listed as z-stat): disrupts spatial memory retention; also recorded: disrupt memory retention for the established memory | learning and retention of a new memory (place avoidance in Context B) (spatial long-term memory): learn to avoid and remember a new second location as well as the mice that had received only vehicle | learning and retention of a new memory (place avoidance in Context B) (spatial long-term memory; listed as z-stat): do not disrupt learning or retention of a new memory | spatial memory retention (time to first enter shock zone), 3-day memory [1]: avoided the shock zone as well as those that had received vehicle; also recorded: not different than vehicle

myr-N-FVRNSLERRSVRMKRPS-C (Myristoyl-FVRNSLERRSVRMKRPS) [K-ZAP]
spatial memory retention (time to first enter shock zone), 3-day memory (spatial long-term memory; tested 2 days post-injection): disrupts established spatial long-term memory retention; also recorded: loss of memory retention | remote spatial memory retention, 30-day memory (spatial long-term memory; 5 nmol in 0.5 μl/side injected 4 weeks after training, tested 2 days post-injection): disrupts remote spatial memory; also recorded: loss of memory retention 30 days post-training | spatial memory retention (time to first enter shock zone), 3-day memory [1]: has no effect on memory retention; also recorded: intact memory retention
